pIC50: −log10 of the molar value.
Tests used:
[1] = target: human androgen receptor (full length, wild-type form) (Homo sapiens (Human), UniProt P10275); assay: Transactivation assay for the wild-type androgen receptor (PC-3 cells, MMTV-luciferase reporter); assay type: cell-based; conditions: in the presence of R1881, 16 hours
From the text: For determining the androgen receptor-dependent transcription, a cellular assay system was used, consisting of PC-3 cells (Kaighn et al., Invest. Urol. 17: 16-23, 1979), which express the human androgen receptor stably and recombinantly (full length, wild-type form, see Swiss-Prot Acc. No. P10275, Entry Version 159, Sequence Version 2). In addition, these PC3 cells contain a stably integrated reporter gene plasmid, which is based on the commercially available plasmid pGL4.14 (#E6691, Promega Corporation, Madison, Wis., USA) and contains the luciferase gene from the American firefly (Photinus pyralis) under the control of the MMTV promoter (Cato et al., EMBO J. 6: 363-368, 1987). These cells were propagated in routine cell culture at 37° C. and 5% CO2 in a medium containing 90% RPMI 1640 (Invitrogen GmbH, Darmstadt, Germany), 100 U penicillin, 100 μg/ml streptomycin (Invitrogen), 4 mM L-glutamine (Invitrogen), 10% fetal calf serum (FCS Serum Gold, PAA Laboratories GmbH, Cölbe, Germany), 600 μg/ml Geneticin (G418-sulphate, Invitrogen) and 10 μg/ml puromycin (Sigma Aldrich GmbH, Germany).
For carrying out the transactivation assays, approx. 1000 cells per well were plated out in a 384-well cell culture plate in a medium that contained activated charcoal-treated calf serum (FCS Serum Gold, PAA Laboratories) at a concentration of 5% (v/v). The test substances were added in a concentration series from 5.12×10^−12 to 1×10^−5 M in the presence of […] R1881 (methyltrienolone). The test plates were incubated overnight at 37° C. and 5% CO2. After 16 hours, 15 μl of Steady Glo Lysis and Detection reagent (E2550, Promega Corporation, Madison, Wis., USA) was added per well and the luminescence was read in a Topcount Luminometer (PerkinElmer, Waltham, Mass., USA) for 4 seconds per well. The luminescence values obtained were normalized, wherein 100% corresponded to the effect of the unstimulated control (without R1881), and 0% corresponded to the effect of the stimulated control (R1881 plus DMSO instead of test substance). The IC50 value was determined by regression analysis based on a four-parameter equation (minimum, maximum, IC50, Hill coefficient; Y=Max+(Min−Max)/(1+(X/IC50)^Hill)).

[2] = tested on: human uterine leiomyoma xenografts; assay: Growth of human xenografts from leiomyoma tissue in immunodeficient mice; assay type: in vivo, mouse
Description: The growth-inhibiting action of inhibitors of the androgen receptor was tested in a xenograft animal model with subcutaneously transplanted tissue fragments from human leiomyomas.
Human uterine leiomyoma tissue was derived from surgery, in which, based on the diagnosis, either a hysterectomy or a myomectomy was carried out. The uterine leiomyomas (UL) were then prepared free either from the removed uterus or by myomectomy in situ; in the last-mentioned method, the myomas were removed whole or by morcellation from the abdominal cavity.
The prepared myomas were then immediately put in a suitable sterile buffer (Vitron V7 Buffer (U.S. Pat. No. 5,328,821) or Viaspan organ transplant buffer) at 4° C. for further transport. Then, on a sterile bench with constant moistening, the UL tissue was cut into small blocks with 2×2×2 mm or 2×4×4 mm edge lengths, and the pieces of tissue were stored in a cell culture dish in PBS at room temperature until transplantation (M Fritsch et al. 2010, ISGE abstract & presentation).
Immunodeficient mice (ICR SCID, CB17 SCID, ICR-Hrhr SCID or SCID beige mice) were ovariectomized at the age of 6-8 weeks (OVX). At the earliest one week after OVX, pellets releasing 17β-estradiol (E2, 0.05 mg/90 d, Innovative Research of America, catalogue number NE-121) and progesterone (P, 25 mg/60 d, Innovative Research of America, catalogue number SP-131) (Innovative Research of America, Sarasota, Fla./USA) were transplanted into the neck region of the animals. Alternatively, the animals can be given replacement therapy with other implants or methods that ensure continuous release of the hormones 17β-estradiol and progesterone. […]
UL tissue in situ was as a rule characterized by an excessive synthesis and accumulation of proteins of the extracellular matrix, and by increased cell proliferation. […] If specific mechanisms of action of the test substances were known or presumed, in addition the cell proliferation and/or the proportion of the extracellular matrix were determined by histological staining. […]

Chain of human androgen receptor (full length, wild-type form) (P10275 whole entry): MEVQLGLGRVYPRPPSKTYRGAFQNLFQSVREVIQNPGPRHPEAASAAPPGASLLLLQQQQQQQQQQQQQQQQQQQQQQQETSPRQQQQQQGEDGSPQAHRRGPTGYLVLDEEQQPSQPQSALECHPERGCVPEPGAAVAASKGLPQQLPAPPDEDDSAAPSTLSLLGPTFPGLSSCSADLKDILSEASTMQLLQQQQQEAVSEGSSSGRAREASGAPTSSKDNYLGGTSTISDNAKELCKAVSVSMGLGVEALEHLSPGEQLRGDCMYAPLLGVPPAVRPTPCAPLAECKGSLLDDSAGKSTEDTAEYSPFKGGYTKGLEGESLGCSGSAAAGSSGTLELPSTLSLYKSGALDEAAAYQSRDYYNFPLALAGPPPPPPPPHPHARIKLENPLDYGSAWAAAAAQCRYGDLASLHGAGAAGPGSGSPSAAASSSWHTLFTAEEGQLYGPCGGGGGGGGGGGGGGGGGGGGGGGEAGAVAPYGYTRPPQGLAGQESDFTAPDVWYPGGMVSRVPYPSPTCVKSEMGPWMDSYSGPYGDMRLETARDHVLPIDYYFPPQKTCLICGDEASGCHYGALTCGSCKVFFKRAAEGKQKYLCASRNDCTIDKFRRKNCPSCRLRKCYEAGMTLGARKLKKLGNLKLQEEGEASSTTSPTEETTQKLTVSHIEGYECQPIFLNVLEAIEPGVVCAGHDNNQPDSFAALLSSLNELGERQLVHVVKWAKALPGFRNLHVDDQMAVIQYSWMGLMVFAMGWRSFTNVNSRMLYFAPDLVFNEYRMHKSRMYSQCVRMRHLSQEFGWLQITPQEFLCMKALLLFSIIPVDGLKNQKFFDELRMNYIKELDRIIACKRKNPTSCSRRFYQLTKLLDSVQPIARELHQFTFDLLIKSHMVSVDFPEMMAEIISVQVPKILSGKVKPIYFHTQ

## N#Cc1cccc2c(O[C@H]3CC[C@H](NC(=O)c4cccc(F)c4)CC3)ccnc12 [Example 23, N-{trans-4-[(8-cyanoquinolin-4-yl)oxy]cyclohexyl}-3-fluorobenzamide]
[1]
  pIC50: 7.28
[2]; 70 mg/kg/d, in 3 out of 4 independent experiments with tissue from different donors
  inhibition of the growth of uterine leiomyoma xenografts: significant inhibition
[2]; dose of 25 mg/kg/d
  average inhibition of the normalized xenograft growth over the transplantation weight on day 0: −24%
[2]; dose of 70 mg/kg/d
  average inhibition of the normalized xenograft growth over the transplantation weight on day 0: −59%
